According to US20240299359A1, “PHARMACEUTICAL COMPOSITION FOR ANIMALS CONTAINING 5-HYDROXY-METHYLIMIDAZOLIDINE-2,4-DIONE COMPOUND AS ACTIVE INGREDIENT” (KYONGBO PHARM. CO., LTD., priority 2021, published 2024):
Values joined by “and” are separate entries in the source; they are usually repeats but may differ in a detail not shown here. Equal values may be shown once.

Test system: beagles
Assay: 13-week repeated oral toxicity: hematological test
Type: in vivo, beagle
Protocol: Fasting was conducted the day before administration (blood test date, pre), the 4th week (day 29) after administration, the 8th week (day 57) after administration, and the 13th week (day 92) after administration, and when the remaining feed was present in the feed container 3 hours after feeding on the day of fasting, it was removed.
All subjects were fasted for 16 hours and measurements were then performed pre (before administration), 4 weeks (day 29) after administration, 8 weeks (day 57) after administration, and 13 weeks (day 92) after administration. Within 3 hours after 2 to 3 ml of blood collected from the jugular vein of each subject was injected into a CBC bottle containing EDTA, RBC, HGB, HCT, RBC indices (MCV, MCH, MCHC), and platelet count and WBC differential count were measured using an automatic hematometer.

[1] = G3 500 mg/kg, repeated administration for 13 weeks, female, group mean
[2] = G3 500 mg/kg, repeated administration for 13 weeks, female, individual animals
[3] = G3 500 mg/kg, repeated administration for 13 weeks, male, group mean
[4] = G3 500 mg/kg, repeated administration for 13 weeks, male, individual animals
[5] = G4 1,000 mg/kg group, female (F10-F12, Mean), before administration (day 0)
[6] = G4 1,000 mg/kg group, female (F10-F12, Mean), before administration (day 0), mean
[7] = G4 1,000 mg/kg group, male (M10-M12, Mean), before administration (day 0)
[8] = G4 1,000 mg/kg group, male (M10-M12, Mean), before administration (day 0), mean
[9] = G4 1,000 mg/kg, repeated administration for 13 weeks, female, group mean
[10] = G4 1,000 mg/kg, repeated administration for 13 weeks, female, individual animals
[11] = G4 1,000 mg/kg, repeated administration for 13 weeks, male, group mean
[12] = G4 1,000 mg/kg, repeated administration for 13 weeks, male, individual animals

Structure (SMILES): CN1C(=O)NC(=O)C1O (stereo not drawn) [KBP-001, 5-hydroxy-1-methylimidazolidine-2,4-dione]
- MCH [1]: 23.5 pg
- MCHC [1]: 33.37 g/dL
- MCV [1]: 70.2 fL
- Retic [1]: 0.59%
- WBC Differential Counting(%) Baso [1]: 0.43%
- WBC Differential Counting(%) Eos [1]: 3.03%
- WBC Differential Counting(%) Lymph [1]: 33.40%
- WBC Differential Counting(%) Mono [1]: 4.37%
- WBC Differential Counting(%) Neut [1]: 58.50%
- HCT [2]: 42.0% and 49.4% and 52.6%
- HGB [2]: 14.2 g/dL and 16.3 g/dL and 17.5 g/dL
- MCH [2]: 23.8 pg and 23.9 pg and 22.7 pg
- MCHC [2]: 33.7 g/dL and 33.1 g/dL and 33.3 g/dL
- MCV [2]: 70.4 fL and 72 fL and 68.2 fL
- Retic [2]: 0.84% and 0.40% and 0.53%
- WBC Differential Counting(%) Baso [2]: 0.3% and 0.5% and 0.4%
- WBC Differential Counting(%) Eos [2]: 3.2% and 2.8% and 3.1%
- WBC Differential Counting(%) Lymph [2]: 37.9% and 30.3% and 32.0%
- WBC Differential Counting(%) Mono [2]: 4.3% and 3.5% and 5.2%
- WBC Differential Counting(%) Neut [2]: 62.4%
- HCT [3]: 48.10%
- HGB [3]: 16.27 g/dL
- MCH [3]: 23.8 pg
- MCHC [3]: 33.83 g/dL
- MCV [3]: 70.4 fL
- Retic [3]: 0.41%
- WBC Differential Counting(%) Baso [3]: 1.10%
- WBC Differential Counting(%) Eos [3]: 5.07%
- WBC Differential Counting(%) Lymph [3]: 30.00%
- WBC Differential Counting(%) Mono [3]: 7.23%
- WBC Differential Counting(%) Neut [3]: 55.697%
- HCT [4]: 42.2% and 49.5% and 52.6%
- HGB [4]: 14.2 g/dL and 16.9 g/dL and 17.7 g/dL
- MCH [4]: 23.5 pg and 24.4 pg and 23.6 pg
- MCHC [4]: 33.7 g/dl (2×) and 34.1 g/dl
- MCV [4]: 70 fL and 71.5 fL and 69.9 fL
- Retic [4]: 0.54% and 0.46% and 0.23%
- WBC Differential Counting(%) Baso [4]: 0.3% and 0.4% and 2.6%
- WBC Differential Counting(%) Eos [4]: 3.9% and 7.5% and 3.8%
- WBC Differential Counting(%) Lymph [4]: 23.4% and 27.1% and 39.5%
- WBC Differential Counting(%) Mono [4]: 7.8% (2×) and 6.1%
- WBC Differential Counting(%) Neut [4]: 64.3% and 56.8% and 46.8%
- HCT [5]: 47.7% and 44.4% and 48.4%
- HGB [5]: 16.1 g/dL and 14.9 g/dL and 16.2 g/dL
- MCH [5]: 22.9 pg and 23.2 pg and 22.2 pg
- MCHC [5]: 33.7 g/dL and 33.5 g/dL
- MCV [5]: 68 fL and 69.2 fL and 66.3 fL
- Retic [5]: 1.79% and 1.14% and 0.92%
- WBC Differential Counting Baso [5]: 0.5% and 0.7% and 0.9%
- WBC Differential Counting Eos [5]: 3.8% and 3.2% and 2.1%
- WBC Differential Counting Lymph [5]: 30.9% and 31.1% and 43.6%
- WBC Differential Counting Mono [5]: 4.6% and 4.0% and 5.5%
- WBC Differential Counting Neut [5]: 59.3% and 60.5% and 47.3%
- HCT [6]: 39.40%
- HGB [6]: 13.17 g/dL
- MCH [6]: 18.4 pg
- MCHC [6]: 25.57 g/dL
- MCV [6]: 55.4 fL
- Retic [6]: 0.77%
- WBC Differential Counting Baso [6]: 0.74%
- WBC Differential Counting Eos [6]: 3.70%
- WBC Differential Counting Lymph [6]: 28.17%
- WBC Differential Counting Mono [6]: 4.91%
- WBC Differential Counting Neut [6]: 46.85%
- HCT [7]: 45.1% and 46.8% and 43.2%
- HGB [7]: 15.0 g/dL and 15.6 g/dL and 14.5 g/dL
- MCH [7]: 22.4 pg and 22.5 pg and 21.7 pg
- MCHC [7]: 33.2 g/dL and 33.3 g/dL and 33.6 g/dL
- MCV [7]: 67.6 fL and 67.4 fL and 64.7 fL
- Retic [7]: 0.51% and 0.65% and 0.56%
- WBC Differential Counting Baso [7]: 0.8% and 0.4% and 0.7%
- WBC Differential Counting Eos [7]: 3.5% and 3.9% and 4.8%
- WBC Differential Counting Lymph [7]: 34.8% and 31.7% and 35.5%
- WBC Differential Counting Mono [7]: 6.5% and 7.8% and 4.5%
- WBC Differential Counting Neut [7]: 53.8% and 55.9% and 54.0%
- HCT [8]: 39.19%
- HGB [8]: 13.07 g/dL
- MCH [8]: 18.2 pg
- MCHC [8]: 27.30 g/dL
- MCV [8]: 54.9 fL
- Retic [8]: 0.74%
- WBC Differential Counting Baso [8]: 0.78%
- WBC Differential Counting Eos [8]: 3.68%
- WBC Differential Counting Lymph [8]: 28.23%
- WBC Differential Counting Mono [8]: 5.10%
- WBC Differential Counting Neut [8]: 46.56%
- HCT [9]: 41.40%
- HGB [9]: 14.00 g/dL
- MCH [9]: 23.3 pg
- MCHC [9]: 33.83 g/dL
- MCV [9]: 68.8 fL
- Retic [9]: 0.36%
- WBC Differential Counting(%) Baso [9]: 0.40%
- WBC Differential Counting(%) Eos [9]: 2.07%
- WBC Differential Counting(%) Lymph [9]: 36.50%
- WBC Differential Counting(%) Mono [9]: 4.57%
- WBC Differential Counting(%) Neut [9]: 55.93%
- HCT [10]: 39.9% (2×) and 44.4%
- HGB [10]: 13.4 g/dL and 13.6 g/dL and 15.0 g/dL
- MCHC [10]: 33.5 g/dL and 34.2 g/dL and 33.8 g/dL
- MCV [10]: 69.5 fL and 68.2 fL and 68.7 fL
- Retic [10]: 0.53% and 0.27% and 0.28%
- WBC Differential Counting(%) Baso [10]: 0.4% and 0.5% and 0.3%
- WBC Differential Counting(%) Eos [10]: 3.1% and 0.8% and 2.3%
- WBC Differential Counting(%) Lymph [10]: 31.4% and 42.6% and 35.8%
- WBC Differential Counting(%) Mono [10]: 3.9% (2×) and 5.9%
- WBC Differential Counting(%) Neut [10]: 60.7% and 51.8% and 55.3%
- HCT [11]: 46.33%
- HGB [11]: 15.80 g/dL
- MCH [11]: 23.4 pg
- MCHC [11]: 34.07 g/dL
- MCV [11]: 68.6 fL
- Retic [11]: 0.31%
- WBC Differential Counting(%) Baso [11]: 0.43%
- WBC Differential Counting(%) Eos [11]: 4.73%
- WBC Differential Counting(%) Lymph [11]: 32.17%
- WBC Differential Counting(%) Mono [11]: 6.07%
- WBC Differential Counting(%) Neut [11]: 56.33%
- HCT [12]: 43.1% and 47.6% and 48.3%
- HGB [12]: 14.4 g/dL and 16.9 g/dL and 16.1 g/dL
- MCH [12]: 23.3 pg and 24.5 pg and 22.3 pg
- MCHC [12]: 33.3 g/dL and 35.5 g/dL and 33.4 g/dL
- MCV [12]: 70 fL and 69.1 fL and 66.8 fL
- Retic [12]: 0.27% and 0.32% and 0.33%
- WBC Differential Counting(%) Baso [12]: 0.5% and 0.4% (2×)
- WBC Differential Counting(%) Eos [12]: 4.0% and 4.4% and 5.8%
- WBC Differential Counting(%) Lymph [12]: 33.7% and 29.5% and 33.2%
- WBC Differential Counting(%) Mono [12]: 5.8% and 6.8% and 5.6%
- WBC Differential Counting(%) Neut [12]: 55.7% and 58.6% and 54.7%
